Experiments:
[1] = test system: LXN; assay: LXN gene expression by microarray in K562 cells; type: cell-based; conditions: 100 nM OR21, 1000 nM imatinib
Description: (§1) K562 cells (cell lines derived from CML) were purchased from JCRB cell bank and KBM5 cells (cell lines derived from CML) were provided by Dr. M. Beran (MD Anderson Cancer Center, University of Texas). These calls were cultured in an RPMI 1640 medium containing 10% fetal bovine serum (FBS) and 1% penicillin-streptomycin at 37° C. in atmosphere of 5% CO2.
(§2) After the culture, mRNA was collected and gene expression was comprehensively analyzed by microarrays.

[2] = test system: stem cells of CML; assay: Limiting dilution assay in secondarily transplanted mice; type: in vivo; conditions: peripheral blood, 16 weeks after secondary transplantation; compared to vehicle or IM donor group
Description: Then, engraftment of GFP positive cells in the peripheral blood (PB) at 16 weeks after the secondary transplantation was determined and analyzed by limiting dilution assay. […] The bottom row of the table indicates the cell number required to be engrafted. The larger numbers mean that it is more difficult to engraft. It is noted that engraftment of GFP positive cells is defined to have a GFP positive rate of 0.5% or more in the peripheral blood of recipient mice. […] The higher plots or slope of the lines mean that it is more difficult to engraft.

[3] = test system: LXN; assay: LXN protein expression by Western blotting, OR21 with TKI (FIG. 5); type: cell-based; conditions: K562 and KBM5 cells, 100 nM OR21, 1000 nM imatinib, 2.5 nM dasatinib, 1, 2 and 3 days, corrected with β actin
Description: as §1
0, 24, and 48 hours after the cell seeding, 100 nM OR21, a DNA methyltransferase inhibitor, was added. […] After the culture, the cells were collected, dissolved, and determined for protein expression level of LXN by Western blotting. […] The expression level of LXN shown in FIG. 5 represents each expression level of the cases when the LXN expression under each condition was corrected with β actin and the expression level in the control was taken as 1.0.

[4] = test system: LXN; assay: LXN gene expression by microarray in KBM5 cells; type: cell-based; conditions: 100 nM OR21, 1000 nM imatinib
Description: as §1, §2

[5] = test system: stem cells or progenitor cells of CML; assay: Mouse model of CML (recipient mice engrafted with GFP positive MIG-BCR-ABL1 myeloid cells); type: in vivo; conditions: after 12 days of administration, OR21 1.35 mg/kg i.p., IM 150 mg/kg oral
Description: Recipient mice were engrafted with myeloid cells to which GFP positive MIG-BCR-ABL1 had been introduced and used as CML models. […] After administration of the drugs to each group for 12 days, the GFP positive cells in peripheral blood, bone marrow, and spleen were determined. Inter-group comparisons were performed by a significance test of Mann-Whitney U-tests (p<0.05, **p<0.01) in FIG. 1.

[6] = test system: DNMT1; assay: DNMT1 expression in K562 cells (FIG. 6); type: cell-based; conditions: 100 nM azacytidine, decitabine or cytarabine
[7] = test system: LXN; assay: LXN protein expression by Western blotting in K562 cells, azacytidine/decitabine/cytarabine with imatinib (FIG. 6); type: cell-based; conditions: 100 nM azacytidine, decitabine or cytarabine, 1000 nM imatinib
Description: 0, 24, and 48 hours after the cell seeding, azacytidine (100 nM), decitabine (100 nM), or cytarabine (100 nM) was added to K562 cell culture, cultured for 2 days. […] After the culture, the cells were collected, dissolved, and determined for protein expression level of LXN by Western blotting. The expression level of LXN shown in FIG. 6 represents each expression level of the cases when the LXN expression under each condition was corrected with β actin and the expression level in the control was taken as 1.0.

## CC[Si](CC)(CC)OC[C@H]1O[C@@H](n2cnc(N)nc2=O)C[C@@H]1O [OR21]
[1]
  gene expression level of LXN in respect of the control: 4.5 times
[2]
  GFP positive cells in mice of the secondary transplantation: significantly reduced
[3]
  protein expression level of LXN: increase in the protein expression level of LXN over time
[4]
  gene expression level of LXN in respect of the control: 3.4 times
[5]
  linage-negative cells (Lin-) in bone marrow: decreased
[5]; bone marrow
  Lin-Sca-1+c-Kit+ (LSK) cells: decreased
[5]; peripheral blood, bone marrow and spleen, compared to vehicle group
  GFP positive cell rate: significant decrease

## Nc1ncn([C@@H]2O[C@H](CO)[C@@H](O)[C@H]2O)c(=O)n1 [azacytidine, 4-amino-1-β-D-ribofuranosyl-s-triazin-2(1H)-one]
[6]
  expression of DNMT1: reduced

## Nc1ccn([C@@H]2O[C@H](CO)[C@@H](O)[C@@H]2O)c(=O)n1 [cytarabine]
[6]
  expression of DNMT1: did not exhibit inhibitory effect
[7]
  protein expression of LXN: no increase

## Nc1ncn([C@H]2C[C@H](O)[C@@H](CO)O2)c(=O)n1 [decitabine, 4-amino-1-(2-deoxy-β-D-erythro-pentofuranosyl)-1,3,5-triazin-2(1H)-one]
[6]
  expression of DNMT1: reduced
[7]
  protein expression of LXN: increased

## Cc1ccc(NC(=O)c2ccc(CN3CCN(C)CC3)cc2)cc1Nc1nccc(-c2cccnc2)n1 [imatinib]
[1]
  gene expression level of LXN in respect of the control: 1.3 times
[3]
  protein expression level of LXN: almost no effect
[4]
  gene expression level of LXN in respect of the control: 1.9 times
